In brackets after ≈: the same amount, converted by molar mass. Where two headings read alike, the source gives them in different places.

Three molecules from patent US9737075B2, “Synergistic benzoxaborole-containing anti-fungicidal composition” (The Penn State Research Foundation, priority 2015, dated 2017) can be followed below.

Holding throughout (type): cell-based
Test [1] has as its system Fusarium solani f. sp. pisi (MP VI). Put plainly: Broth microdilution MIC of individual antifungals. Particulars: for MIC: read-out: Independent MIC.
In another test the test system is Fusarium graminearum. Put plainly: microbe, parasite or virus in culture. Particulars: Fusarium graminearum; for MIC: 72 h, read-out: Independent MIC.
The next test concerns Candida albicans. Put plainly: Broth microdilution MIC of individual antifungals. As to conditions: for MIC: read-out: Independent MIC.
In a further test the test system is Penicillium chrysogenum. Put plainly: Broth microdilution MIC of individual antifungals. Particulars: for MIC: read-out: Independent MIC.
The subject of a further test is Aspergillus flavus. Put plainly: Broth microdilution MIC of individual antifungals. As to conditions: for MIC: read-out: Independent MIC.
Another test concerns Mucor sp. Put plainly: Broth microdilution MIC of individual antifungals. As to conditions: individual antifungal, 25% PDB, about 25° C., 72 hours, range over N independent triplicate studies.
A further test concerns Alternaria solani. Put plainly: Broth microdilution MIC of individual antifungals. As to conditions: individual antifungal, 25% PDB, about 25° C., 72 hours, range over N independent triplicate studies; for MIC: read-out: Independent MIC.
The next test has as its system Sclerotinia homoeocarpa. Put plainly: Broth microdilution MIC of individual antifungals. Particulars: Sclerotinia homoeocarpa, individual antifungal, 25% PDB, about 25° C., 72 hours, range over N independent triplicate studies; for MIC: Clarireedia homoeocarpa, read-out: Independent MIC.
In another test the test system is Rhizopus sp. Put plainly: Broth microdilution MIC of individual antifungals. Particulars: for MIC: Rhizopus, 72 h, read-out: Independent MIC.
In test [2] the test system is Colletotrichum orbiculare. Put plainly: Broth microdilution MIC of individual antifungals. As to conditions: for MIC: read-out: Independent MIC.
Another test has as its system Botrytis cinerea 10-1728. Put plainly: Broth microdilution MIC of individual antifungals. Particulars: Botrytis cinerea 10-1728, individual antifungal, 25% PDB, about 25° C., 72 hours, range over N independent triplicate studies; for MIC: 101728, read-out: Independent MIC.
The subject of a further test is Fusarium verticillioides. Put plainly: Broth microdilution MIC of individual antifungals. As to conditions: individual antifungal, 25% PDB, about 25° C., 72 hours, range over N independent triplicate studies; for MIC: read-out: Independent MIC.
The subject of another test is Aspergillus niger. Put plainly: Broth microdilution MIC of individual antifungals. As to conditions: for MIC: read-out: Independent MIC.
Test [3] deals with Mycosphaerella zeae-maydis. Put plainly: Broth microdilution MIC of individual antifungals. As to conditions: individual antifungal, 25% PDB, about 25° C., 72 hours, range over N independent triplicate studies; for MIC: Didymella maydis.
The test system of test [4] is two dozen different fungal organisms. Put plainly: Broth microdilution MIC, summary over the organisms examined. Particulars: against many species tested here. The procedure: All antifungal susceptibility assays were conducted in triplicate and N independent times. Thus, the inhibition studies were conducted a total of 3·N times. […] Thus, each synergy assay (combination of two antifungals) was conducted in conjunction with independent MIC determination. FICI values were calculated by comparing the inhibition activity of the combination (benzoxaborole+another antifungal) against the efficacy of the individual antifungal within the same experiment (using the same experimental conditions).
The studies were performed in flat bottom, 96-well microtiter plates (Greiner Bio-One).
Plates sealed with clear polyester film (VWR) were incubated at a temperature of about 25° C. The progress of fungal growth was monitored at 48 hours, 72 hours, 7 days, and 15 days. […] In order to establish appropriate comparison between the different fungi, the FICI (thus, the MICs used) determination was done at 72 hours for all cases discussed herein.
The MICs of the individual antifungals (MICBoron and MICA) and in combination (MICBA) were determined after 72 hours of incubation. […] MICA is defined as the MIC value of every other individual non-benzoxaborole-based antifungal. MICBA is defined as the MIC value when the benzoxaborole antifungal is combined with another non-benzoxaborole antifungal. […] The combination studies were performed in triplicate in flat bottom 96-well microtiter plates with a final media volume of 0.2 mL/well.

A further test relates to Rhizoctonia solani. Put plainly: Broth microdilution MIC of individual antifungals. Particulars: individual antifungal, 25% PDB, about 25° C., 72 hours, range over N independent triplicate studies, read-out: Independent MIC.
A further test concerns Aspergillus fumigatus. Put plainly: Broth microdilution MIC of individual antifungals. As to conditions: individual antifungal, 25% PDB, about 25° C., 72 hours, range over N independent triplicate studies; for MIC: read-out: Independent MIC.
Test [5] concerns Fusarium oxysporum f. sp. lycopersici. Put plainly: Broth microdilution MIC of individual antifungals. Particulars: individual antifungal, 25% PDB, about 25° C., 72 hours, range over N independent triplicate studies.
The next test has as its system Magnaporthe grisea. Put plainly: microbe, parasite or virus in culture. As to conditions: Magnaporthe grisea; individual antifungal, 25% PDB, about 25° C., 72 hours; range over N independent triplicate studies.
Another test deals with Botrytis cinerea B17. Put plainly: Broth microdilution MIC of individual antifungals. Particulars: Botrytis cinerea B17; individual antifungal, 25% PDB, about 25° C., 72 hours; range over N independent triplicate studies.
In the next test the test system is Phytophthora pini. Put plainly: Broth microdilution MIC of individual antifungals. Particulars: individual antifungal, 25% PDB, about 25° C., 72 hours, range over N independent triplicate studies.
Another test deals with Pythium aphanodermatum. Put plainly: Broth microdilution MIC of individual antifungals. As to conditions: individual antifungal, 25% PDB, about 25° C., 72 hours, range over N independent triplicate studies.
In another test the test system is Stachybotrys chartarum. Put plainly: Broth microdilution MIC of individual antifungals. As to conditions: individual antifungal, 25% PDB, about 25° C., 72 hours, range over N independent triplicate studies.
Another test has as its system Fusarium oxysporum ST33. Put plainly: Broth microdilution MIC of individual antifungals. Particulars: individual antifungal, 25% PDB, about 25° C., 72 hours, range over N independent triplicate studies.
A further test has as its system Aureobasidium pullulans. Put plainly: Broth microdilution MIC of individual antifungals. As to conditions: individual antifungal, 25% PDB, about 25° C., 72 hours, range over N independent triplicate studies.
Where [6] appears, read: Fusarium solani f. sp. pisi (MP VI), individual antifungal, 25% PDB, about 25° C., 72 hours, range over N independent triplicate studies.
Setting [7] is: individual antifungal, 25% PDB, about 25° C., 72 hours, range over N independent triplicate studies.
Setting [8] is: Rhizopus sp., individual antifungal, 25% PDB, about 25° C., 72 hours, range over N independent triplicate studies.

In the case of `N#Cc1c(Cl)c(Cl)c(Cl)c(C#N)c1Cl` [Chlorothalonil, chlorothalonil], the MIC in test [1] (setting [6]) was 12.5 to 25 µg/mL; with Fusarium graminearum, 0.78 to 1.56 µg/mL (≈ 2.93 to 5.87 µM); in the test with Candida albicans (setting [7]), 0.78 µg/mL; in the test with Penicillium chrysogenum (setting [7]), 0.1 µg/mL; in the test on Aspergillus flavus (setting [7]) it was 0.1 to 0.2 µg/mL; in the test on Mucor sp., 0.78 to 1 µg/mL. Moreover, the MIC was 1 to 1.56 µg/mL with Alternaria solani; 0.39 to 0.78 µg/mL with Sclerotinia homoeocarpa; 0.78 µg/mL in the test on Rhizopus sp. (setting [8]); 0.39 µg/mL in test [2] (setting [7]); 0.2 to 0.5 µg/mL in the test on Botrytis cinerea 10-1728; 0.75 to 0.78 µg/mL with Fusarium verticillioides. Further, the MIC is 0.39 to 1 µg/mL in the test with Aspergillus niger (setting [7]); 0.78 to 1 µg/mL in test [3]; over 25 µg/mL in test [4]; 1.56 µg/mL in the test with Rhizoctonia solani; 0.1 to 0.2 µg/mL in the test on Aspergillus fumigatus.

On to mancozeb, for which the “Independent MIC” value in test [1] (setting [6]) was 100 µg/mL; in the test with Fusarium graminearum (setting [7]), 12.5 µg/mL; with Candida albicans (setting [7]), 50 µg/mL; in the test on Penicillium chrysogenum (setting [7]), “(6.25-12.5) μg/mL”; in the test on Aspergillus flavus (setting [7]), “(6.25-25)^ μg/mL”; in test [5] it was “(6-12.5) μg/mL”. Besides, the “Independent MIC” value is “(50-100) μg/mL” with Mucor sp.; “(10-12.5) μg/mL” in the test with Alternaria solani; 6.25 µg/mL with Magnaporthe grisea; “(8-20) μg/mL” in the test with Sclerotinia homoeocarpa; “(25-80) μg/mL” with Rhizopus sp. (setting [8]); “(6.25-12.5) μg/mL” in test [2] (setting [7]). Further, the “Independent MIC” value with Botrytis cinerea 10-1728 is 3.125 µg/mL; in the test with Botrytis cinerea B17, “(32-64) μg/mL”; in the test on Fusarium verticillioides, “(4-8) μg/mL”; with Phytophthora pini, 0.39 µg/mL; with Pythium aphanodermatum, “(28-50) μg/mL”; in the test with Stachybotrys chartarum it was “(3.125-6.25) μg/mL”. Besides, the “Independent MIC” value was “(32-80) μg/mL” with Fusarium oxysporum ST33; “(25-50) μg/mL” in the test with Aspergillus niger (setting [7]); “(6.25-12.5) μg/mL” in the test with Aureobasidium pullulans; “(3.125-8) ^ μg/mL” in [3]; 100 µg/mL with Aspergillus fumigatus.

On to `CNC(=S)S` [Metam Sodium, Metam sodium], for which the MIC is 25 to 50 µg/mL in test [1] (Fusarium solani, 72 h); 12.5 to 25 µg/mL in the test on Fusarium graminearum; 25 µg/mL with Candida albicans (72 h); 50 µg/mL in the test with Penicillium chrysogenum (72 h); 25 µg/mL with Aspergillus flavus (72 h); 50 µg/mL in the test with Mucor sp.. The MIC with Alternaria solani was 12.5 to 15 µg/mL; in the test on Sclerotinia homoeocarpa it was 6.25 µg/mL; with Rhizopus sp., 100 µg/mL; in test [2] (72 h) it was 12.5 to 25 µg/mL; in the test on Botrytis cinerea 10-1728, 50 to 200 µg/mL; in the test on Fusarium verticillioides it was 25 µg/mL. For the same molecule, the MIC in the test with Phytophthora pini is 50 µg/mL; with Aspergillus niger (72 h), 50 µg/mL; in test [3], 6 to 6.25 µg/mL; in test [4] it was over 25 µg/mL; in the test with Rhizoctonia solani, 25 to 50 µg/mL; in the test on Aspergillus fumigatus, 25 µg/mL.
